# Conditions: a range is the spread between reports
compound,measurement,value
Nc1cc(Cl)cc(Cl)c1,melting point,51 to 53 °C
O=CC=Cc1ccco1,melting point,51 to 54 °C
CCCCOC(=O)c1ccc(N)cc1,melting point,57.5 to 58 °C
O=C(O)c1ccc([N+](=O)[O-])o1,melting point,184 to 187 °C
Clc1ccc(-c2ccccc2)cc1,melting point,78 to 78.8 °C
Oc1ccccn1,melting point,107 to 108 °C
Nc1ccccn1,melting point,57.5 to 58 °C
C=C(C(=O)O)C(F)(F)F,melting point,50 to 51.5 °C
CCCCCCCCCCC=O,melting point,-4 to 0 °C
CN1CCN(CCCN2c3ccccc3Sc3ccccc32)CC1,melting point,52 to 53 °C
CCc1cccc(CC)c1,melting point,-84 to -83.9 °C
OCC(O)C(O)CO (centres undefined),melting point,122 °C
CC(C)(C)c1ccc(O)c(O)c1,melting point,54.3 to 55 °C
Cc1cc(C)cc(C(=O)O)c1,melting point,170 to 171 °C
Oc1cc(Cl)cc(Cl)c1,melting point,66 to 68 °C
c1ccc(N=C(Nc2ccccc2)Nc2ccccc2)cc1,melting point,144 to 146 °C
Cc1ccc(NC(=O)c2ccccc2)cc1,melting point,156 to 158 °C
NNC=O,melting point,55 to 57 °C
OCc1cccc(Oc2ccccc2)c1,melting point,6 to 10 °C
O=P(Oc1ccccc1)(Oc1ccccc1)Oc1ccccc1,melting point,50 to 50.5 °C
CC1(C)C2CC[C@@]1(C)C(=O)C2,melting point,178 to 180 °C
O=C(O)c1cc(Cl)ccc1Cl,melting point,152 to 156 °C
CC(=O)CC(=O)OC(C)C,melting point,-27.3 to -27 °C
C1=CC2CCC1C2,melting point,45 to 46 °C
NC=O,melting point,2 to 2.55 °C
CC12CCC(=O)C=C1CCC1C2C(=O)CC2(C)C1CCC2(O)C(=O)CO (centres undefined),melting point,222 to 226 °C
Cc1c(C)c(C)c(Br)c(C)c1C,melting point,162 to 165 °C
CCCCOCCO,melting point,-79 to -74.8 °C
COP(=S)(OC)SCn1nnc2ccccc2c1=O,melting point,72 to 73 °C
ClCCOc1ccccc1,melting point,24 to 28 °C
O=C(c1ccccc1)c1ccc([N+](=O)[O-])cc1,melting point,137 to 138 °C
ClC(Cl)=C(Cl)C(Cl)(Cl)Cl,melting point,-73 to -72.9 °C
N#Cc1ccccc1C=O,melting point,104 to 108 °C
O=C(Cl)CCCCCCCCC(=O)Cl,melting point,-5 to -2.5 °C
CC(=O)Nc1ccc(Cl)cc1,melting point,178 to 179 °C
Cc1cc(C2(c3cc(C)c(O)c(Br)c3)OS(=O)(=O)c3ccccc32)cc(Br)c1O,melting point,241 to 242 °C
ClC(c1ccccc1)(c1ccccc1)c1ccccc1,melting point,112 to 114 °C
CCc1ccc2ccccc2c1,melting point,-7.45 to -7.35 °C
C/C=C/C=O,melting point,-76.5 to -76 °C
Cc1c(C)c(C)c(C)c(C)c1C,melting point,164 to 168 °C
C=CC(C)C,melting point,-168 °C
N#Cc1cccc(N)c1,melting point,52 to 54.3 °C
COC(=O)c1cccc(O)c1,melting point,71 to 74 °C
COc1ccccc1Br,melting point,2 to 3 °C
CCC(C)C(=O)OC1CC(C)C=C2C=CC(C)C(CCC3CC(O)CC(=O)O3)C21 (centres undefined),melting point,174 to 175 °C
Cc1cc(C)c(C(=O)O)c(C)c1,melting point,152 to 154 °C
CC(=O)Nc1ccc([N+](=O)[O-])cc1,melting point,215 to 216 °C
O=NN1CN2CN(C1)CN(N=O)C2,melting point,204 to 207 °C
O=c1[nH]c2ccccc2o1,melting point,138 to 140 °C
C=C(Cl)C(=O)O,melting point,65 to 66 °C
CCC1(C2=CCCCC2)C(=O)NC(=O)NC1=O,melting point,172 to 173 °C
N#CCc1ccc(I)cc1,melting point,48 to 53 °C
C=CC(=O)OCCCC,melting point,-64.6 to -64 °C
CCCCCCCC/C=C\CCCCCCCCCCCC(N)=O,melting point,77.5 to 79 °C
Cc1ccc2c(c1[N+](=O)[O-])C(=O)c1ccccc1C2=O,melting point,268 to 270 °C
Nc1cccc2cccc(N)c12,melting point,63 to 66.5 °C
c1ccc(-n2cccc2)cc1,melting point,59 to 62 °C
COc1ccc2c(c1OC)C(=O)OC2,melting point,101 to 102 °C
O=C(O)C(F)(F)F,melting point,-15.2 to -15 °C
C1COCCO1,melting point,11.8 to 12 °C
O=C(O)CCCCCc1ccccc1,melting point,18 to 23 °C
CO,melting point,-98 to -97.5 °C
Cc1ccc(C(=O)O)cc1C,melting point,165 to 166 °C
Nc1ccc2[nH]ncc2c1,melting point,175 to 176 °C
CCCCCCCCCCCCCCCCCCO,melting point,58 to 61 °C
CC(C)(C)c1ccc(C(=O)O)cc1,melting point,164 to 166 °C
CC12C=CC(=O)C=C1CCC1C2C(O)CC2(C)C1CCC2(O)C(=O)CO (centres undefined),melting point,235 to 240 °C
COC(=O)c1ccc(Cl)cc1,melting point,43 to 44 °C
O=Cc1cc(Br)cc(Br)c1O,melting point,83 to 86 °C
COc1ccc(C(C)=O)cc1,melting point,38 to 38.5 °C
C=CCCl,melting point,-135 to -134 °C
CN(C)Cc1cc(C(C)(C)C)c(O)c(C(C)(C)C)c1,melting point,91 to 93.5 °C
Brc1cccnc1,melting point,-27.3 to -27 °C
Cc1cc(O)c2ccccc2n1,melting point,234 to 235 °C
COC(=O)c1ccc(I)cc1,melting point,115 °C
O=C1CCCCCCCCCCC1,melting point,60 to 61 °C
O=C(O)c1ccc(O)cc1,melting point,214 to 217 °C
OCCCCCCCO,melting point,18 to 22.5 °C
CC(C)(C)C(=O)O,melting point,33 to 36 °C
CC(=O)c1cccc([N+](=O)[O-])c1,melting point,78 to 81 °C
O=Cc1ccc2ccccc2c1,melting point,61 to 62 °C
N[C@@H](Cc1c[nH]cn1)C(=O)O,melting point,282 to 287 °C
O=[N+]([O-])c1cc([N+](=O)[O-])c(F)cc1F,melting point,73 to 74 °C
OCCNCCO,melting point,28 to 29 °C

# Source: a melting point compilation (Tetko et al.)
